Results as given in ChEMBL document CHEMBL1156829 (Proc Natl Acad Sci U S A, 2008).

Legend:
[1] = tested on: Plasmodium falciparum; experiment: NOVARTIS: Inhibition of Plasmodium falciparum 3D7 (drug-susceptible) proliferation in erythrocyte-based infection assay; type: functional, organism-based; settings: Plasmodium falciparum, 3D7
[2] = tested on: Plasmodium falciparum; experiment: NOVARTIS: Inhibition of Plasmodium falciparum W2 (drug-resistant) proliferation in erythrocyte-based infection assay; type: functional, organism-based; settings: Plasmodium falciparum, W2; read-out: EC50
[3] = NOVARTIS: Cytotoxicity against human hepatocellular carcinoma cell line (Huh7); type: toxicity, cell-based, Huh-7; settings: Huh7 cells (hepatocellular carcinoma cell line)

SMILES	EC50 [1]	EC50 [2]	CC50 [3]
CCN(CC)CCNC(=O)C1c2ccccc2C(=O)N(Cc2ccc(F)cc2)C1c1ccc(OC)cc1 (centres undefined)	782 nM	2420 nM	46.4 µM
CC(C)Nc1ccc(Nc2ccnc3cc4ccccc4cc23)cc1	31.8 nM	276 nM	5.4 µM
COc1cccc(NC(=O)C2C3C=CC4(O3)C2C(=O)N(Cc2ccc3c(c2)OCO3)C4C(=O)NC2CCCCC2C)c1 (centres undefined)	> 12500 nM	> 5310 nM	> 100 µM
COCCN(CC(=O)NCc1ccc(OC2CCN(CC(c3ccccc3)c3ccccc3)CC2)cc1)S(=O)(=O)c1ccccc1	1000 nM	526 nM	> 10 µM
c1ccc(-c2nc(-c3ccc4cccnc4c3)n(-n3c(-c4ccc5cccnc5c4)nc(-c4ccccc4)c3-c3ccccc3)c2-c2ccccc2)cc1	3640 nM	1500 nM	29.1 µM
CC1(C)N=C(N)N=C(N)N1c1ccc(Br)cc1	0.592 nM	533 nM	> 10 µM
Cc1ccc(Nc2nc(NN=Cc3ccc(-c4ccc([N+](=O)[O-])cc4)o3)nc(N3CCOCC3)n2)cc1Cl	> 598 nM	503 nM	> 10 µM
CCCCCCCCC(=O)N1CCN(C(CC)c2nc3ccccc3c(=O)n2C)CC1 (centres undefined)	492 nM	500 nM	> 10 µM
CCC(C(=O)N(C)CCCNc1ccnc2cc(Cl)ccc12)c1ccccc1 (centres undefined)	311 nM	310 nM	6.17 µM
c1ccc(CCCNc2ccnc3cc4ccccc4cc23)cc1	199 nM	209 nM	4.14 µM
COc1ccc(CN2C[C@H](Sc3nc4ccccc4[nH]3)C[C@H]2C(=O)NC2CC2)cc1C	545 nM	830 nM	16.5 µM
Cc1cc(N2CCC(N(C)C3CCCC3)CC2)nc2cc(O)ccc12	312 nM	1290 nM	25.5 µM
CCCN1CCC(N2C[C@@H](NCc3ccc4c(c3)c3ccccc3n4CC)C[C@H]2C(=O)NCC)CC1	> 252 nM	323 nM	> 6.38 µM
CC(C)(C)C1=CC(=C2C=C(C(C)(C)C)SC(C(C)(C)C)=C2)C=C(C(C)(C)C)S1	805 nM	506 nM	> 10 µM
CON(C)C=C(C(=O)Nc1ccc(C(F)(F)F)cc1)C(=O)Nc1ccc(C(F)(F)F)cc1	659 nM	515 nM	> 10 µM
CN(Cc1ccccc1)c1cc(-c2ccccn2)nc(-c2ccccn2)n1	531 nM	514 nM	> 10 µM
CC(CCCO)Nc1ccnc2cc(Cl)ccc12 (centres undefined)	561 nM	513 nM	> 10 µM
CCCCCCCCC(=O)NCCCCNc1ccnc2cc(Cl)ccc12	1140 nM	286 nM	5.6 µM
Cc1ccc2[nH]c3c(NCCc4ccccc4F)ncnc3c2c1	835 nM	843 nM	16.5 µM
CCN(CC)CCCNC(=S)N(CCN(CC)CC)Cc1cc2ccc(C)c(C)c2[nH]c1=O	3280 nM	> 2610 nM	51.1 µM
CN(Cc1ccccc1)c1nc2c(c(=O)[nH]c(=O)n2C)n1CCCSc1ncccn1	> 12500 nM	5190 nM	> 100 µM
CC(=O)c1c(C)oc2ccc(NS(=O)(=O)c3cccc(C(=O)O)c3)cc12	> 1250 nM	> 515 nM	> 10 µM
Cc1nc(CC(=O)N2CCCC(CNC(=O)C3(c4ccc(Cl)cc4)CC3)C2)cs1 (centres undefined)	> 12500 nM	5020 nM	> 100 µM

SMILES	EC50 [1]	EC50 [2]	CC50 [3]
Cc1ccc(NC(=O)CCCCC(=O)Nc2ccc(C)c(Br)c2)cc1Br	> 1160 nM	> 1450 nM	> 10 µM
Oc1ccccc1Nc1nc(NC2CCCC2)c2ccccc2n1	530 nM	877 nM	16.7 µM
COc1cccc(N2CCN(CCNCCOc3ccccc3)[C@@H](Cc3ccccc3)C2)c1	703 nM	383 nM	> 7.31 µM
Clc1cccc(CCNC2CCN(CCc3ccccc3)CC2)c1	170 nM	651 nM	12.4 µM
CC(C)CNC(=O)c1cnc(NCCCN2CCCCC2C)nc1NCC(C)C (centres undefined)	344 nM	1460 nM	> 10 µM
CCc1ccc2[nH]c(=O)c(CN(CCN(C)C)C(=S)NCCCN(C)C)cc2c1	1760 nM	> 1460 nM	> 10 µM
COc1cccc(C=NNC(=O)c2ccccc2O)c1O	5380 nM	969 nM	6.64 µM
Oc1ccc(-c2ccnc3cc(Cl)ccc23)cc1CNCCN1CCOCC1	984 nM	622 nM	> 11.9 µM
COc1ccc(C2(C(=O)NCc3ccccc3Cl)CCCC2)cc1OC	12000 nM	5220 nM	> 100 µM
COc1ccc(C(=O)N(CCCC(C)Nc2cc(OC)cc3cccnc23)Cc2ccccc2OC)cc1 (centres undefined)	713 nM	270 nM	5.18 µM
CCc1ccc(C(C)=NNc2nc(O)cc(-c3ccccc3)n2)cc1	1780 nM	> 1460 nM	> 10 µM
CN(C)c1ccc(N=C2NC(=O)/C(=C/c3ccc(Cl)cc3)S2)cc1	819 nM	1460 nM	> 10 µM
N#CCCN(CC1CCCO1)C(=O)Nc1ccc(Cl)c(C(F)(F)F)c1 (centres undefined)	> 1020 nM	> 523 nM	> 10 µM
Cc1ccc(C)c(CN2C(=O)c3ccccc3S(=O)(=O)c3ccc(C(=O)NCCCN4CCCC(C)C4)cc32)c1 (centres undefined)	1070 nM	1750 nM	12 µM
Cc1ccc(Cl)cc1N1C(=O)[C@@H]2[C@H](C1=O)C1c3ccccc3C=CN1[C@@H]2C(=O)c1cccs1 (some centres undefined)	1060 nM	529 nM	> 10 µM
COC(=O)c1c(-c2c(F)cccc2Cl)noc1C=CNc1ccc(OC)cc1	10200 nM	5290 nM	> 100 µM
COc1cc(NC(C)CCCN(Cc2ccccc2OC)C(=O)C(C)C)c2ncccc2c1 (centres undefined)	684 nM	406 nM	> 7.7 µM
COc1ccc(Nc2c3c(nc4ccc(NC(=O)c5cc(=O)c6ccccc6o5)cc24)CCCC3)cc1OC	303 nM	558 nM	11.1 µM
CC(=O)Nc1ccc2c(c1)C(=O)N(C(CC(C)C)C(=O)NCC(=O)O)[C@@H](CCC(=O)OCc1ccccc1)C(=O)N2 (some centres undefined)	48.2 nM	> 503 nM	> 10 µM
O=C(COC(c1ccccc1)c1c(Cl)cncc1Cl)N1CCNCC1 (centres undefined)	592 nM	2570 nM	48.2 µM
OC(CNC1CCN(Cc2ccccc2)CC1)COc1ccc(Br)cc1 (centres undefined)	745 nM	499 nM	> 10 µM
Cc1ccc(S(=O)(=O)N=C2C=C(Sc3nc4ccccc4[nH]3)C(=O)c3ccccc32)cc1	632 nM	834 nM	16.8 µM
CC(C)(C)CC(C)(C)Nc1c(-c2ccccc2OC(=O)c2ccco2)nc2ccccn12	> 12500 nM	4960 nM	> 100 µM

SMILES	EC50 [1]	EC50 [2]	CC50 [3]
CCN1C=C(c2ccc(C)cc2)S/C1=C\c1sc2ccccc2[n+]1C	362 nM	938 nM	18.9 µM
N=c1c2c(n(Cc3ccc(Cl)cc3)c3c1CCC3)CCCC2	222 nM	533 nM	> 10 µM
COc1ccc(-c2ccc3c(N)c(C(=O)NCCc4ccccc4)sc3n2)cc1OC	> 10800 nM	4970 nM	> 100 µM
CCN(CC)CCCNC(=S)N(Cc1ccc(F)cc1)Cc1cc2cc(C)cc(C)c2[nH]c1=O	2760 nM	1200 nM	22.5 µM
Cc1cc(N2CCN(C)CC2)nc2ccc(NC(=O)c3ccc(Br)o3)cc12	1680 nM	2680 nM	53.7 µM
CCN(Cc1ccccc1)Cc1c(O)ccc2oc(C)c(C(=O)Nc3ccc(C)cc3C)c12	3490 nM	2100 nM	42.3 µM
CCC(Sc1nc(C)cc(-c2ccccc2)n1)C(=O)Nc1cccc2ccccc12 (centres undefined)	> 1250 nM	496 nM	> 10 µM
N=c1c2c(n(Cc3ccc(Cl)c(Cl)c3)c3c1CCC3)CCCC2	503 nM	506 nM	> 10 µM
N#Cc1cc(-c2cccc(C(F)(F)F)c2)cn(Cc2c(Cl)cccc2Cl)c1=O	> 7430 nM	5080 nM	> 100 µM
Cc1oc2c(c1C(=O)NC1CCS(=O)(=O)C1)C(=O)c1ccccc1C2=O (centres undefined)	437 nM	127 nM	2.4 µM
CCOC(=O)c1ccc(NC(=O)c2cc3ccccn3n2)cc1	> 1250 nM	> 500 nM	> 10 µM
C=CCNC(=O)c1ccc2c(c1)N=C(c1ccc(F)cc1)N(CCCC)C2	191 nM	2450 nM	16.9 µM
C=CCNc1ncnc2c1c(-c1ccccc1)cn2-c1ccccc1	4520 nM	5220 nM	> 100 µM
COc1cc(NC(C)CCCN(Cc2ccc(N(C)C)cc2)C(=O)c2ccc(F)cc2)c2ncccc2c1 (centres undefined)	> 630 nM	501 nM	> 10 µM
CN(C)CCCNCc1cc(-c2cccnc2)ccc1O	241 nM	514 nM	> 10 µM
OC(CN1CCN(C2c3ccccc3-c3ccccc32)CC1)Cn1c2ccc(Br)cc2c2cc(Br)ccc21 (centres undefined)	> 11300 nM	5080 nM	> 100 µM
CCN1/C(=C/c2sc3ccc(OC)cc3[n+]2CC)C=Cc2cc(C)ccc21	431 nM	508 nM	> 10 µM
c1ccc(N=c2sc(-c3ccccc3)cn2CCCCCCn2cc(-c3ccccc3)sc2=Nc2ccccc2)cc1	739 nM	525 nM	> 10 µM
Oc1ncnc2c1C(c1ccccc1)c1c(O)ncnc1O2	> 882 nM	> 462 nM	> 8.83 µM
CC(=O)N1CCNC1=Nc1c(Cl)nc(C)nc1Cl	444 nM	498 nM	> 10 µM
O=C(NCCc1ccc(-c2ccccc2)cc1)c1ccc(NS(=O)(=O)C(F)(F)F)cc1	> 1250 nM	> 439 nM	> 8.73 µM
Cc1ccc(-c2cn3ccccc3[n+]2CC(=O)c2ccc(Cl)cc2)cc1[N+](=O)[O-]	369 nM	506 nM	> 10 µM
